Results on eleven compounds are retold here after patent US7196110B2, “N-substituted tricyclic 3-aminopyrazoles as inhibitors for the treatment of cell proliferative disorders” (Janssen Phamaceutica N.V., priority 2002, dated 2007).

For assay [1], the system named is human coronary artery smooth muscle cells (HCASMC), PDGF-BB induced. Briefly: Anti-cell proliferation in normal cells in the presence of PDGF stimulation (14C-thymidine incorporation). The class given is cell-based. The conditions noted are these: read-out: IC50 on cell proliferation, HCASMC (PDGF-BB). The procedure: The effect of compounds of the invention on cell proliferation in normal human primary cells, in particular, cryopreserved human coronary artery smooth muscle cells (HCASMC), in the presence of PDGF stimulation was tested based on incorporation of ^14C-thymidine into DNA of cells.
The following materials were purchased from their respective sources: Recombinant human PDGF beta homodimer, rhPDGF-BB (herein after referred as “PDGF-BB”) purchased from R&D System (Minneapolis, Minn., Cat. No 220-BB); Cryopreserved human coronary artery smooth muscle cells (HCASMC), tissue culture medium for HCASMC, and smooth muscle growth supplement (SMGS) purchased from Cascade Biologics (Portland, Oreg., HCASMC Cat. No: C-017-5C; Medium 231 Cat. No: M-231-500; and SMGS Cat. No: S-007-25); 96-well CytoStar tissue culture treated scintillating microplates purchased from Amersham (Piscataway, N.J., Cat. No: RPNQ0160); Methyl ^14C-thymidine at 56 mCi/mmol (250 μCi/2.5 mL) purchased from NEN (Cat. No.: NEC568); DMSO from Sigma (St. Louis, Mo., Cat. No: D-5879); Sterile reagent reservoirs from Costar (VWR International, Inc., West Chester, Pa., Cat. No: 4870); Dulbecco's PBS from Gibco (Cat. No: 14190-136); Backing tape white plate cover for bottom of CytoStar plate from Packard (Cat. No: 6005199)
HCASMC were seeded at approx. 4000 cells/well in a volume of 100 μl of complete Medium 231 with SMGS. Cells were grown for 48 hrs until they reach 80% confluence. They were then quiesced in SMGS-free Medium 231 for 24 hrs. Cell media were replenished with SMGS-free Medium 231 containing PDGF-BB at 50 ng/mL in a total volume of 100 μl/well; and 1 μl of test compounds in serially diluted concentrations in 100% DMSO was added to each well. For the maximum growth control wells, only 1 μl of 100% DMSO was added; for minimum growth (blank) wells, 1 μl of 10 mM cycloheximide was added to each well. After 24 hours incubation, 20 μl of ^14C-thymidine mix was added to each well and the ^14C-thymidine mix was made according the following regimen:
Cells were incubated for an additional 24 hrs in media containing test compounds, PDGF-BB and ^14C-thymidine. Then, the reaction mixture was discarded and the plate was washed 3 times each with 200 μl PBS. Subsequently, each well on the plate was filled with 200 μl of PBS. The top of the plate was sealed with transparent plate sealer and white plate backing sealers were applied to the bottom of plates. The retained ^14C inside each well was measured using a Packard TopCount.
The amount of ^14C retained in a well correlates to the proliferation of cells inside the well. […] In order to test the potency of inhibition of the present compound, IC50 of an individual compound on the inhibition of PDGF-BB induced HCASMC proliferation was measured using the above procedure. As used herein, said IC50 refers to the concentration of the test compound at which the amount of PDGF-BB induced HCASMC proliferation is reduced by one-half as compared to the maximum growth control wells without the compound.
On the technique in general: Uptake of a labelled nucleoside into DNA is a usual measure of proliferation.

Assay [2] deals with human umbilical vein endothelial cells (HUVEC). In words: Anti-cell proliferation in normal cells in the absence of PDGF stimulation (BrdU incorporation). In kind it is cell-based. Particulars: read-out: IC50 on cell proliferation, HUVEC (LSGS). As to the method:
The effect of compounds of the invention on cell proliferation in normal human primary cell, in particular, human umbilical vein endothelial cells (HUVEC), in the absence of PDGF stimulation was tested based on incorporation of BrdU into DNA of cells.
The following materials were purchased from their respective sources: HUVEC cells from Cascade Biologics, Cat No: C-015-10C; Medium 200 from Cascade Biologics, Cat No: M-200-500; Low serum growth supplements (LSGS) from Cascade Biologics, Cat No: S-003-10; F12-K medium from Gibco/BRL, Cat No: 21127-022; BrdU kit from Roche, Cat No: 1 647 229; and Trypsin/EDTA solution from Cascade Biologics, Cat No: R-001-100.
For propigation, HUVEC cells were grown in M-200 medium supplemented with LSGS. For studies, cells were detached with Trypsin/EDTA solution and washed three times with 10 mL of F12K (LS, low serum) medium and then centrifuged at 400×G for 5 minutes. F-12K (LS) medium is F-12K medium containing 0.2% heat-treated fetal bovine serum.
Cell concentration was adjusted to about 5×10^4 cells/mL in F-12K (LS) medium, and 200 μl (approx. 1×10^4 cells) were added to each well of a 96-well plate. Cells were then incubated for 16 to 20 hours at 37° C. under 95% air/5% CO2 to allow the cells to attach and become quiescent.
Cell proliferation was stimulated by adding 50 μL of a 1:10 dilution of LSGS in F12K (LS). Maximum-stimulated control wells were prepared by adding 50 μl of a 1:10 dilution of LSGS. Zero control wells contained 50 SL of F-12K (LS) medium only. Test compounds in 100% DMSO were added at a volume of 2.5 μl to achieve the desired final drug concentration. Replicates of eight wells per condition were tested. Cells were incubated at 37° C. overnight. On the next day 25 μL of BrdU (1:100 dilution of stock in F-12K (LS) medium) was added to each well.
Cells were incubated for an additional 20–24 hours. The medium was removed and the cells were fixed by adding 200 μL of FixDent solution (included in the BrdU kit) to each well and then incubated at room temperature for an additional 30 minutes. FixDent was removed by flicking and blotting the plates, and 100 μL of anti-BrdU-POD (included in the BrdU kit) diluted at a 1:100 dilution in antibody dilution solution (included in the BrdU kit) was added to each well. The diluted anti-BrdU-POD solution was prepared shortly before use. The plates were incubated at room temperature for 90 minutes.
The unbound antibody was removed by washing three times with Wash Solution (200 uL per wash). Wash Solution was prepared by making a 1:10 dilution of Wash Buffer Stock (included in the BrdU kit) with distilled water. Substrate solution (included in the BrdU kit) (100 uL) was added to each well and incubated for an additional 30–40 minutes. Plates were then read at 405 nm on a 96-well plate reader.
In order to test the potency of inhibition of the present compound, IC50 of an individual compound on the inhibition of PDGF-BB independent HUVEC proliferation was measured using the above procedure. As used herein, said IC50 refers to the concentration of the test compound at which the amount of HUVEC proliferation is reduced by one-half as compared to the maximum growth control wells without the compound.

The mark [3] stands for this setting: PDGF-BB induced HCASMC proliferation.

The structures appear in SMILES notation. Like-named read-outs stand apart in the source and are kept apart here. Bounds are passed on as bounds.

With `COc1cc2c(cc1OC)-c1n[nH]c(Nc3ccccc3F)c1C2` [Compound 12, (6,7-Dimethoxy-2,4-dihydro-indeno[1,2-c]pyrazol-3-yl)-(2-fluoro-phenyl)-amine], the IC50 in assay [1] (setting [3]) worked out at 106 nM; in assay [2] (LSGS, PDGF-BB independent), 31 nM. The corresponding values for `COC(=O)c1cccc(Nc2[nH]nc3c2Cc2cc(OCCCN4CCCC4)c(OC)cc2-3)c1` [Compound 157, 3-[7-Methoxy-6-(3-pyrrolidin-1-yl-propoxy)-2,4-dihydro-indeno[1,2-c]pyrazol-3-ylamino]-benzoic acid methyl ester] are 8 nM and 218 nM. Regarding `COC(=O)c1cccc(Nc2[nH]nc3c2Cc2cc(OC)c(OC)cc2-3)c1` [Compound 11, 3-(6,7-Dimethoxy-2,4-dihydro-indeno[1,2-c]pyrazol-3-ylamino)-benzoic acid methyl ester], the IC50 in assay [1] (setting [3]) was 14 nM; in assay [2] (LSGS, PDGF-BB independent) it was 2 nM.

For `COc1cc2c(cc1OC)-c1n[nH]c(NCc3cc(Cl)ccc3Cl)c1C2` [Compound 330, (2,5-Dichloro-benzyl)-(6,7-dimethoxy-2,4-dihydro-indeno[1,2-c]pyrazol-3-yl)-amine], in assay [2] (LSGS, PDGF-BB independent), the IC50 is 49 nM. As to `COc1cc2c(cc1OC)-c1n[nH]c(Nc3cccc(F)c3)c1C2` [Compound 14, (3-Fluoro-phenyl)-(6,7-dimethoxy-2,4-dihydro-indeno[1,2-c]pyrazol-3-yl)-amine], the IC50 in assay [1] worked out at 3 nM; in assay [2], 4870 nM. Regarding `COc1cccc(Nc2[nH]nc3c2Cc2cc4c(cc2-3)OCO4)c1` [Compound 97, (2,9-Dihydro-5,7-dioxa-2,3-diaza-cyclopenta[a]-s-indacen-1-yl)-(3-methoxy-phenyl)-amine], the IC50 in assay [1] (setting [3]) worked out at 19 nM; in assay [2] (LSGS, PDGF-BB independent) it was 1910 nM.

Consider `CN1CCN(c2ccc3c(c2)Cc2c-3n[nH]c2Nc2cccc(Br)c2)CC1` [Compound 122, (3-Bromo-phenyl)-[6-(4-methyl-piperazin-1-yl)-2,4-dihydro-indeno[1,2-c]pyrazol-3-yl]-amine], for which the IC50 turned out to be 125 nM in assay [1] (setting [3]) and 223 nM in assay [2] (LSGS, PDGF-BB independent). Regarding `Cc1ccc2c(c1)-c1n[nH]c(Nc3ccccc3)c1C2` [Compound 22, (7-Methyl-2,4-dihydro-indeno[1,2-c]pyrazol-3-yl)-phenyl-amine], the IC50 in assay [1] (setting [3]) stood at 278 nM; in assay [2] (LSGS, PDGF-BB independent), 2150 nM. Take `COc1cc2c(cc1OC)-c1n[nH]c(Nc3cccnc3)c1C2` [Compound 30, (6,7-Dimethoxy-2,4-dihydro-indeno[1,2-c]pyrazol-3-yl)-pyridin-3-yl-amine]: the IC50 in assay [1] (setting [3]) was 2 nM; in assay [2] (LSGS, PDGF-BB independent), more than 1000 nM. Regarding `COc1ccc2c(c1)-c1n[nH]c(Nc3ccccc3)c1C2` [Compound 39, (7-Methoxy-2,4-dihydro-indeno[1,2-c]pyrazol-3-yl)-phenyl-amine], in assay [1] (setting [3]), the IC50 worked out at 9 nM. Turning to `COc1cc2c(cc1OC)-c1n[nH]c(NCc3ccccc3)c1C2` [Compound 63, Benzyl-(6,7-dimethoxy-2,4-dihydro-indeno[1,2-c]pyrazol-3-yl)-amine], the IC50 in assay [1] (setting [3]) turned out to be 14 nM; in assay [2] (LSGS, PDGF-BB independent) it was 2460 nM.
